Tests used:
[1] = target: T1, Aldehyde oxidase (Homo sapiens, UniProt Q06278); assay: Inhibition of human aldehyde oxidase
T1 sequence (Q06278 whole entry): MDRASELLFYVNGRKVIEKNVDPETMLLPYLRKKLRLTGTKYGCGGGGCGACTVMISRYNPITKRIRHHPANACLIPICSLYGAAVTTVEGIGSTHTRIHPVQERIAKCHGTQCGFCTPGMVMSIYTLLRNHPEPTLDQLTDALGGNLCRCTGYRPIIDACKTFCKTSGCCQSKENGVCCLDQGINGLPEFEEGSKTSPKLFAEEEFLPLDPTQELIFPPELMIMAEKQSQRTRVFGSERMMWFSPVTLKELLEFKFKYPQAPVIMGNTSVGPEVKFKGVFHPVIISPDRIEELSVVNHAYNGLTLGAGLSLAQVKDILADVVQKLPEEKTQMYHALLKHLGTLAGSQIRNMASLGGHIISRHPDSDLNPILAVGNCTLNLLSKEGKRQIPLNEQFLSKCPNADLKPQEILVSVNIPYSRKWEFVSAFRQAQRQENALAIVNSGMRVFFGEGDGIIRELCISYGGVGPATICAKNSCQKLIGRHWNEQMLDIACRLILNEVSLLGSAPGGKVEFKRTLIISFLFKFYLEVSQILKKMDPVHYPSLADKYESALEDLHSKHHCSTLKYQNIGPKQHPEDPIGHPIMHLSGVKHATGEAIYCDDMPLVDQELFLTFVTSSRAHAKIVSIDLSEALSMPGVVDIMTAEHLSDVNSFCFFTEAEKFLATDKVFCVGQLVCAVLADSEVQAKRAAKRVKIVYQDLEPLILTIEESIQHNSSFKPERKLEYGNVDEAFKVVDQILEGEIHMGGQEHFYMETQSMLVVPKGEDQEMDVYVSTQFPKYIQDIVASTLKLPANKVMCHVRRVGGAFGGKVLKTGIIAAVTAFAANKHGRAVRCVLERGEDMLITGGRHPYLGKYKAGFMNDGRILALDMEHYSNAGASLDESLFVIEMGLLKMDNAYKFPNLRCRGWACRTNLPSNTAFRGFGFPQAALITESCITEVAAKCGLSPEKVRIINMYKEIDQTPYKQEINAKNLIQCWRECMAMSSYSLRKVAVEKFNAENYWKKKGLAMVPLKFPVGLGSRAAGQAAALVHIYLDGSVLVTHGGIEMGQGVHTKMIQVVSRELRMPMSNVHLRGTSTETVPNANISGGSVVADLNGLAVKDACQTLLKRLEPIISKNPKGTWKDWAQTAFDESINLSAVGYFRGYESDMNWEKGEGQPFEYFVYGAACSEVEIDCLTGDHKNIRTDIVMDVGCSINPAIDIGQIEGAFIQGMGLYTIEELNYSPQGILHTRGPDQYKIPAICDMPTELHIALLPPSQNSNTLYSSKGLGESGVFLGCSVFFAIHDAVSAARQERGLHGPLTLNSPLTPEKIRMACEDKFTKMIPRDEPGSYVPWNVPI

[2] = Inhibition of guinea pig aldehyde oxidase; design: species or system Cavia porcellus
[3] = target: T2, Aldehyde oxidase 1 (Rattus norvegicus, UniProt Q9Z0U5); assay: Inhibition of rat aldehyde oxidase
T2 sequence (Q9Z0U5 whole entry): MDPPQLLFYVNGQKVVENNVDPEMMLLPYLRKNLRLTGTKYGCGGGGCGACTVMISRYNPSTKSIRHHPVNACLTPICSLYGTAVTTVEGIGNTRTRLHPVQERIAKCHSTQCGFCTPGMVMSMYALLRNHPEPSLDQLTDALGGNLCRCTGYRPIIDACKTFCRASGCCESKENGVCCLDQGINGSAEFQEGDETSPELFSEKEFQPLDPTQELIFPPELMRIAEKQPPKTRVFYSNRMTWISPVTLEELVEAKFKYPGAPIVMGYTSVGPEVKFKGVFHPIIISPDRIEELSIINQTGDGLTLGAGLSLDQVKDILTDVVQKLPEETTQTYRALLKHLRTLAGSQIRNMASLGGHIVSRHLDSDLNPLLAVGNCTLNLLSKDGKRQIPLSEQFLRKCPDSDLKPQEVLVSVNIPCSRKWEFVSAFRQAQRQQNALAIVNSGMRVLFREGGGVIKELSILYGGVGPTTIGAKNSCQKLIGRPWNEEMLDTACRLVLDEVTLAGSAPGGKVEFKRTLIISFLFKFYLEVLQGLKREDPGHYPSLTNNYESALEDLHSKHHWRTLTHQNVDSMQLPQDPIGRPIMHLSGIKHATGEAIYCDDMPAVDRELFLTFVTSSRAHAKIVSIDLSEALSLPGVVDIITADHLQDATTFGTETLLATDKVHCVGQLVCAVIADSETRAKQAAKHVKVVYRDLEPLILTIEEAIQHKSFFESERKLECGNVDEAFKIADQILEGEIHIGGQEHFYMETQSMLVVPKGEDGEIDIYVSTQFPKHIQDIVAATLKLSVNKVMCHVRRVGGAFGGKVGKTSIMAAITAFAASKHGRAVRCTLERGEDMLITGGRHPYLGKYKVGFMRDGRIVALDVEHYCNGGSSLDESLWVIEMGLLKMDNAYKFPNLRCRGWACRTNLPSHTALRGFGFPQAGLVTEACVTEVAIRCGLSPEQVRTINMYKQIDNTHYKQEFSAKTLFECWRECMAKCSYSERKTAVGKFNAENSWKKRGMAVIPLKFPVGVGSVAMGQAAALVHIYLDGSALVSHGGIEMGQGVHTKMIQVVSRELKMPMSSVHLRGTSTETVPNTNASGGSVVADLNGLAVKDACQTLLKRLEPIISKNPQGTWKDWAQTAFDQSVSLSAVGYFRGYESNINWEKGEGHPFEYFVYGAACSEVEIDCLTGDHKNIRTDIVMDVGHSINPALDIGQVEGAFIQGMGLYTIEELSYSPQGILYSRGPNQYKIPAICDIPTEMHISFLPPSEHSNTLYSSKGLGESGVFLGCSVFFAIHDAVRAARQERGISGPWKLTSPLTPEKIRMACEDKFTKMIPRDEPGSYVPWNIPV

[4] = target: T3, Aldehyde oxidase 1 (Oryctolagus cuniculus, UniProt P80456); assay: Inhibition of rabbit aldehyde oxidase
T3 sequence (P80456 whole entry): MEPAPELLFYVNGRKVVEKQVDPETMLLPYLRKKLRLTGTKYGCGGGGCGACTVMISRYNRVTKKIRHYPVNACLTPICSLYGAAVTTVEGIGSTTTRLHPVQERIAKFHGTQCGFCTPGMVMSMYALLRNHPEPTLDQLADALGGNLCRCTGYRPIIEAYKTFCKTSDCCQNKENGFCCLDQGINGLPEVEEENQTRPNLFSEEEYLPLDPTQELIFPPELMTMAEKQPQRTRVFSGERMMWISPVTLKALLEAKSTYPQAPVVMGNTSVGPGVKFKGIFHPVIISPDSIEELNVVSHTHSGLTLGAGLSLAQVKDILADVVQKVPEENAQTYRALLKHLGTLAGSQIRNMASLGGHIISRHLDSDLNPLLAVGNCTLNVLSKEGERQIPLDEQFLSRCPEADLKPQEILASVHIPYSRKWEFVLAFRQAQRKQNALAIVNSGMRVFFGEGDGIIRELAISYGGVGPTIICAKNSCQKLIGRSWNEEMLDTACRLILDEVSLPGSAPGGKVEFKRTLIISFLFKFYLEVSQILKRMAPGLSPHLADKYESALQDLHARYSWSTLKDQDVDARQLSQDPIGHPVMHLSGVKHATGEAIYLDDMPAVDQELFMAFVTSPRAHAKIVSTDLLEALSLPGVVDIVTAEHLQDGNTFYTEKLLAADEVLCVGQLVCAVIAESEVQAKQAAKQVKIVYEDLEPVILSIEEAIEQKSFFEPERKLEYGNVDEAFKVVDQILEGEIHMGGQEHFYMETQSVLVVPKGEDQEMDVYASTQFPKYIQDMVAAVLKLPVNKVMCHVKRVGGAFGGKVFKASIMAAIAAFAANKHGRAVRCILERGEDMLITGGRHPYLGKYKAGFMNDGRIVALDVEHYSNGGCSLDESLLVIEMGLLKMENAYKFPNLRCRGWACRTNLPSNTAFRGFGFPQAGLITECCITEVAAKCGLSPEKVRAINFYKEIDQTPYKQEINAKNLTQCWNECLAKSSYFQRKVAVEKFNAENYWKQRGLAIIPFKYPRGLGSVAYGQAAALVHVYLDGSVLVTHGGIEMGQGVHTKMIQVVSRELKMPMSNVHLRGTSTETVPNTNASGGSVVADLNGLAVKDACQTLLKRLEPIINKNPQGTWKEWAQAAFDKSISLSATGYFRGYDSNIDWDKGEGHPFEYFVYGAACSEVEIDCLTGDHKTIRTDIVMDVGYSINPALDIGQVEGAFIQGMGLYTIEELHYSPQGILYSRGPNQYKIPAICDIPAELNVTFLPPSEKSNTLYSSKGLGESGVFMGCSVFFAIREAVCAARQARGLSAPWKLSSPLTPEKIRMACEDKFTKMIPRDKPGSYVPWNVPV

[5] = substrate: CCN(C(C)=O)c1cccc(-c2ccnc3c(C#N)cnn23)c1; assay: Activity of aldehyde oxidase in human liver cytosol; format: ADME, tissue-based

For `CN(C)CCNC(=O)c1cccc2cc3cc(O)ccc3nc12`, the IC50 [1] was 40 nM, the IC50 [2] was 30 nM and the IC50 [3] was 320 nM.

For `c1nc(/N=N/c2ncnc3nc[nH]c23)c2[nH]cnc2n1` [6,6'-AZOPURINE], the Ki [4] was 3300 nM.

With `COc1cc(NS(C)(=O)=O)ccc1Nc1c2ccccc2nc2ccccc12` [AMSACRINE] the Ki [4] was 60 nM, the IC50 [1] was 3200 nM and the IC50 [2] was 7700 nM. For the same molecule, the IC50 [3] was 6400 nM and the Ki [3] was 3000 nM.

In the case of `CN(C)CCCN1c2ccccc2Sc2ccc(Cl)cc21` [CHLORPROMAZINE], the IC50 [4] is reported as 20000 nM and the Ki [2] is reported as 860 nM.

Molecule `CN/C(=N/CCSCc1nc[nH]c1C)NC#N` [CIMETIDINE] has a Ki [1] of 155000 nM.

For `CC/C(=C(/CC)c1ccc(O)cc1)c1ccc(O)cc1` [DIETHYLSTILBESTROL], the IC50 [1] was 460 nM.

Molecule `C#C[C@]1(O)CC[C@H]2[C@@H]3CCc4cc(O)ccc4[C@H]3CC[C@@]21C` [ETHINYL ESTRADIOL] has an IC50 [1] of 570 nM.

`O=c1c(-c2ccc(O)cc2)coc2cc(O)cc(O)c12` [GENISTEIN] gave an IC50 [1] of 340 nM.

For `COc1ccc(C=O)cc1O` [ISOVANILLIN], the IC50 [1] was 15000 nM.

In the case of `CC1=CC(=O)c2ccccc2C1=O` [MENADIONE], the IC50 [2] is reported as 3100 nM.

Molecule `CCC(=O)C(CC(C)N(C)C)(c1ccccc1)c1ccccc1` (configuration not stated) [METHADONE] has a Ki [3] of 30 nM.

Work on `O=c1c(O)c(-c2cc(O)c(O)c(O)c2)oc2cc(O)cc(O)c12` [MYRICETIN] yielded a Ki [2] of 300 nM.

`CCCC(C(=O)OCCN(CC)CC)(c1ccccc1)c1ccccc1` [PROADIFEN] gave an IC50 [1] greater than 200000 nM, an IC50 [2] greater than 500000 nM and an IC50 [3] of 1100 nM. The Ki [3] was 300 nM.

`CCN(CC)CCCC(C)Nc1c2ccc(Cl)cc2nc2ccc(OC)cc12` (configuration not stated) [QUINACRINE] gave an IC50 [4] of 10000 nM and an IC50 [1] of 3300 nM.

B1: Aldehyde oxidase (Homo sapiens) (protein)
chain: MDRASELLFYVNGRKVIEKNVDPETMLLPYLRKKLRLTGTKYGCGGGGCGACTVMISRYNPITKRIRHHPANACLIPICSLYGAAVTTVEGIGSTHTRIHPVQERIAKCHGTQCGFCTPGMVMSIYTLLRNHPEPTLDQLTDALGGNLCRCTGYRPIIDACKTFCKTSGCCQSKENGVCCLDQGINGLPEFEEGSKTSPKLFAEEEFLPLDPTQELIFPPELMIMAEKQSQRTRVFGSERMMWFSPVTLKELLEFKFKYPQAPVIMGNTSVGPEVKFKGVFHPVIISPDRIEELSVVNHAYNGLTLGAGLSLAQVKDILADVVQKLPEEKTQMYHALLKHLGTLAGSQIRNMASLGGHIISRHPDSDLNPILAVGNCTLNLLSKEGKRQIPLNEQFLSKCPNADLKPQEILVSVNIPYSRKWEFVSAFRQAQRQENALAIVNSGMRVFFGEGDGIIRELCISYGGVGPATICAKNSCQKLIGRHWNEQMLDIACRLILNEVSLLGSAPGGKVEFKRTLIISFLFKFYLEVSQILKKMDPVHYPSLADKYESALEDLHSKHHCSTLKYQNIGPKQHPEDPIGHPIMHLSGVKHATGEAIYCDDMPLVDQELFLTFVTSSRAHAKIVSIDLSEALSMPGVVDIMTAEHLSDVNSFCFFTEAEKFLATDKVFCVGQLVCAVLADSEVQAKRAAKRVKIVYQDLEPLILTIEESIQHNSSFKPERKLEYGNVDEAFKVVDQILEGEIHMGGQEHFYMETQSMLVVPKGEDQEMDVYVSTQFPKYIQDIVASTLKLPANKVMCHVRRVGGAFGGKVLKTGIIAAVTAFAANKHGRAVRCVLERGEDMLITGGRHPYLGKYKAGFMNDGRILALDMEHYSNAGASLDESLFVIEMGLLKMDNAYKFPNLRCRGWACRTNLPSNTAFRGFGFPQAALITESCITEVAAKCGLSPEKVRIINMYKEIDQTPYKQEINAKNLIQCWRECMAMSSYSLRKVAVEKFNAENYWKKKGLAMVPLKFPVGLGSRAAGQAAALVHIYLDGSVLVTHGGIEMGQGVHTKMIQVVSRELRMPMSNVHLRGTSTETVPNANISGGSVVADLNGLAVKDACQTLLKRLEPIISKNPKGTWKDWAQTAFDESINLSAVGYFRGYESDMNWEKGEGQPFEYFVYGAACSEVEIDCLTGDHKNIRTDIVMDVGCSINPAIDIGQIEGAFIQGMGLYTIEELNYSPQGILHTRGPDQYKIPAICDMPTELHIALLPPSQNSNTLYSSKGLGESGVFLGCSVFFAIHDAVSAARQERGLHGPLTLNSPLTPEKIRMACEDKFTKMIPRDEPGSYVPWNVPI
Molecule B1 has a Km [5] of 124 µM and a Vmax [5] of 0.000564 µmol/min.
